Converted amounts (≈) assume the structure as drawn. Where two headings read alike, the source gives them in different places.
Assays:
[1] = Exploratory toxicology study in Balb/C mice; format: in vivo
Protocol: In comparison to that in rats, toxicity of TGFβ receptor-1 inhibitors in mice was less severe (Figure 4). […] Histopathology examination in bones found relatively mild phenotypes (Figure 4A).
performed using GraphPad Prism statistical software version 5.02 for Windows, GraphPad Software, San Diego
The study design in mice was similar as in rats, except 5 mice of each sex were used (n=10 in total), and that
there was not a recovery group. All analyses were performed at day 29 after termination of treatment.

[2] = rat, in vivo
Protocol: (§1) Sprague-Dawley rats were procured from Hylasco Bio-Technology Pvt. Ltd., Hyderabad. After completion of
(§2) the acclimatization period twelve healthy rats were randomly allocated to the control and treatment g roups.
(§3) mg/kg BID) treated animals, having three rats/sex/group. Rats from control group received vehicle, consisting
(§4) quantity sufficient to 1% w/v Carboxy Methyl Cellulose Sodium Salt. Rats from treatment groups were
(§5) administered with suspensions of the indicated drugs in vehicle, orally twice a day fo r an intended period of 28
(§6) consecutive days. The dosing volume was kept constant at 10 mL/kg for each rat.
(§7) clinical sign that worsened during the treatment, were necropsied in the shortest time for ethical reasons. The
(§8) rest of the rats were necropsied at the end of the treatment.
(§9) asphyxiation on day 29, except for one group of HYL001 treated rats with 71 mg/kg BID, that were allowed to
(§10) recover from treatment for further 28 days.
(§11) The rats were subjected to detailed gross pathological examination which included careful examination of the
(§12) external surface of the body, all orifices and the cranial, thoracic and abdominal cavities and their contents. After
(§13) gross pathological examination the vital organs were trimmed of any adherent tissue and were weighed wet.
(§14) Paired organs were weighed together. Organ weights relative to terminal body weights were calculated for each
(§15) Parameters evaluated during the study included in-life observations such as clinical signs observation, body
(§16) weights, percent body weight gains, and feed consumption. Parameters like hematology, clinical chemistry,
(§17) gross pathology, and organ weights were evaluated on the day of termination. Several organs/tissues were further
(§18) processed and evaluated for histopathology, where special attention was given to bones, gastrointestinal system
(§19) (stomach, duodenum, jejunum, ileum, caecum, colon and rectum), heart, and vascular lesions in the aorta and
(§20) coronary arteries. For histopathology, 3-5 μM thick tissue sections were cut and stained with hematoxylin-eosin
(§21) stain. The heart was trimmed by longitudinally bisecting along a plane perpendicular to the plane of the
(§22) pulmonary artery to expose the right atrioventricular, left atrioventricular, and aortic valves. Both halves of the
(§23) heart were embedded as hemisection in paraffin with the cut surface down. Blocks were sectioned to obtain at
least three heart valves.

[3] = tested on: mouse tumor organoids (MTOs), CRC liver metastases; assay: Prevention of liver metastasis formation after MTO injection (monotherapy); format: in vivo, mice; conditions: 0.1× dose: 71 mg/kg BID HYL001, 80 mg/kg BID galunisertib
Protocol: We first assayed the capacity of HYL001 to inhibit liver metastasis formation as a monotherapy. In this model, we inoculated MTOs derived from liver metastases into the portal vein (by intrasplenic or direct intravenous injection) to model their becoming trapped in hepatic sinusoids and, depending on their metastatic capacity, the initiation of liver nodules. […] Remarkably, 0.1 × mol equiv (71 mg/kg BID) of HYL001 was sufficient to prevent metastasis formation in 10 out of 11 animals.
Figure 5 HYL001 prevents metastasis formation in vivo. (A) Experimental scheme, including injection of MTOs. Experimental end point was at day 28, 2 weeks after treatment stop. […] (B) Liver metastases (Mets) were counted at end points; each point represents one mouse. Nonparametric Mann–Whitney U test, two-tailed. ns: P > 0.05; *P < 0.05; **P < 0.01; ***P < 0.001; (C) representative images of H & E whole slides containing liver sections from mice treated with TGFβ inhibitors; dashed line circles delimit metastases. […] 0.3× and 0.1×: dilutions thereof. Bars, 10 mm.
For all tumor cell injections, C57BL/6J (or athymic BALB/C nu/nu) mice were purchased from Janvier at 6 weeks of age and injected at 7–8 weeks. Sex was matched with the origin of the tumor organoids, i.e., males for this study. […] Visible liver metastases were counted, and data were analyzed using GraphPad Prism software (v.7.03). […]

[4] = Exploratory toxicology study in SD rats; conditions: for Degeneration of heart valves (histopathology grade): HYL001: after 4 weeks of repeated dosing, vactosertib: after 7–8 days of treatment; for Retained hypertrophied cartilage physis in sternum and femur (grade): vactosertib: all animals, HYL001: a few females
Protocol: as §1, §2, §3, §4, §5, §6, §7, §8, §9, §10, §11, §12, §13, §14, §15, §16, §17, §18, §19, §20, §21, §22, §23
least three heart valves.

[5] = biological target: T1, p38α (Homo sapiens, UniProt Q16539); assay: Radiometric in vitro kinase activity assay (Kinase Profiler); format: biochemical; conditions: full-length recombinant protein; read-out: kinase inhibition IC50, p38α
T1 construct: p38alpha was used as a full -length recombinant protein; purchased Eurofins Pharma Discovery Services / Eurofins Cerep (Kinase Profiler service)
T1 sequence (Q16539 whole entry): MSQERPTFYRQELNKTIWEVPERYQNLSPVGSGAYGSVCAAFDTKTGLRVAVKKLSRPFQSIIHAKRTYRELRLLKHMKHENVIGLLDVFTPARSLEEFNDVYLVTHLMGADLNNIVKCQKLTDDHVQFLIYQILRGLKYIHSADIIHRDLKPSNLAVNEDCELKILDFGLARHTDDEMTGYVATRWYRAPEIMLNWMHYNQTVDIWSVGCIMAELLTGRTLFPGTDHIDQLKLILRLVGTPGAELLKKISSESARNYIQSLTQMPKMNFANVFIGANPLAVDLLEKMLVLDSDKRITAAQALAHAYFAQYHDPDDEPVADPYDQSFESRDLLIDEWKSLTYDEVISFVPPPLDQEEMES
Protocol: 5. Methods for In vitro characterizations of HYL001
Kinase affinity and selectivity […]
The activity, measured as IC50, of inhibitors was determined by radiometric γ-33P-ATP-mediated in vitro phosphorylation assays, using the Kinase Profiler service from Eurofins Pharma Discovery Services (Wolverhampton, UK) and Eurofins Cerep (Celle L’Evescault, France). Compounds, prepared in 100% DMSO, were tested using a 9-point curve with half -log serial dilutions (1–10,000 nM). […]

[6] = Solubility; format: physicochemical
Protocol: The solubilities in this solution are 0.7 mg/mL (1b) and 0.23 mg/mL (1a). In most in vivo experiments, a homogeneous suspension in the following vehicle was used: sodium carboxymethylcellulose (1%), sodium dodecyl sulfate (0.4%), polyvinylpyrrolidone (0.085%), and antifoam-A (0.05%). The solubilities in this vehicle are approximately 0.15 mg/mL (1b) and 0.09 mg/mL (1a). […] Therefore, as a proof-of-concept, we leveraged the hydroxyl handle to design HYL002. We added a carbonyl-4-piperidinopiperidine group, in analogy to the ester that solubilizes SN-38 into irinotecan, and that can be cleaved via hydrolysis inside cells[19] (Figure S1). HYL001 reacted with commercially available 4-piperidinopiperidine-1-carbonyl chloride in chloroform using triethylamine and catalytic amounts of DMAP (Scheme S1). We then transformed the resulting compound HYL002 into the corresponding HCl salt to aid the in vivo drug formulation. The free base was dissolved in dioxane under N2, where it was treated dropwise with 10 equiv of 4 M HCl in dioxane at room temperature with vigorous stirring. The reaction mixture was then taken to dryness in vacuo, giving the HCl salt of HYL002.

[7] = oral, cited from earlier work
[8] = aqueous dosing vehicle (NaCMC/SDS/PVP/antifoam-A), aqueous with cosolvent or surfactant or cyclodextrin, vehicle: sodium carboxymethylcellulose (1%), sodium dodecyl sulfate (0.4%), polyvinylpyrrolidone (0.085%), antifoam-A (0.05%), read-out: Solubility

## Cc1cccc(-c2nn3c(c2-c2ccnc4ccc(O)cc24)CCC3)n1 [HYL001, 4-(2-(6-Methylpyridin-2-yl)-5,6-dihydro-4H-pyrrolo[1,2-b]pyrazol-3-yl)quinolin-6-ol]
[1]; mouse, in vivo
  Female mice with slight inflammatory infiltrates in liver: 2/5
  Mortality or signs of morbidity: No mortality or signs of morbidity
[2]
  Animals showing a curved sternum at death or end point: Some female rats
[3]
  Number of mice without detectable liver metastases (liver mets NO): 10 out of 11
[4]
  Degeneration of heart valves (histopathology grade): minimal to mild
  Retained hypertrophied cartilage physis in sternum and femur (grade): mild
[4]; low-dose group 1 (25 mg/kg BID)
  Heart abnormalities: no heart abnormalities were observed
[4]; male rats
  no-observed-adverse-effect level: 25 mg/kg BID
[4]; rats of both sexes, oral, either dose level
  Effects on body weight (gain), feed consumption, hematology, and clinical chemistry analytes: no HYL001-related effects
[5]
  IC50: 0.548 µM
[6]; PBS/2-hydroxypropyl-β-cyclodextrin solution, aqueous with cosolvent or surfactant or cyclodextrin, solution of PBS/2-hydroxypropy-β-cyclodextrin (1 g/mL), read-out: Solubility
  solubility: 230 µg/mL (≈ 672 µM)
[6]; [8]
  solubility: ~90 µg/mL (≈ 263 µM)
[6]
  Solubility in water: poorly soluble

## Cc1cccc(-c2nn3c(c2-c2ccnc4ccc(C(N)=O)cc24)CCC3)n1 [galunisertib]
[7]; mice (♀ CD-1), 75 mg/kg ref 20
  AUClast: 3110 ng·h/mL
  Cmax: 3330 ng/mL
  T1/2: 84 min
  Tmax: 30 min
[3]
  Number of mice with detectable liver metastases (liver mets YES): All treated animals developed metastases
[5]
  IC50: 0.92 µM
[6]; [8]
  solubility: ~150 µg/mL (≈ 406 µM)
[6]; solution of PBS/2-hydroxypropy-β-cyclodextrin (1 g/mL)
  solubility: 700 µg/mL (≈ 1890 µM)
[6]
  Solubility in water: poorly soluble

## Cc1cccc(-c2[nH]c(CNc3ccccc3F)nc2-c2ccc3ncnn3c2)n1 [vactosertib, N -((4-([1,2,4]Triazolo[1,5-a]Pyridin-6-Yl)-5-(6-Methylpyridin-2-Yl)-1 H -Imidazole-2-Yl)Methyl)-2-Fluoroaniline]
[1]; equimolar dose, mice
  Mortality or signs of morbidity: No mortality or signs of morbidity
[1]; female, Balb/C, mouse, in vivo, 29 day
  Female mice with slight inflammatory infiltrates in liver: 4/5
[1]; mouse, in vivo
  Neutrophil count: slight increase
[7]; mice (FVB/N), 10 mg/kg ref 21
  AUCinf: 752 ng·h/mL
  AUClast: 724 ng·h/mL
  Cl/F: 222 mL/min/kg
  Cmax: 625 ng/mL
  T1/2: 196 min
  Tmax: 30 min
  Vss/F: 18 L/kg
[2]
  Animals showing a curved sternum at death or end point: all
  Microscopic findings along the gastrointestinal tract: minimal hyperplasia of the nonglandular stomach and chronic inflammation observed in one female rat
[4]
  Degeneration of heart valves (histopathology grade): moderate
  Retained hypertrophied cartilage physis in sternum and femur (grade): mild–moderate
[4]; at early end points (day 7–8)
  Animals with chronic inflammation of the myocardium: all 6
[4]; group 4, equimolar dose (82 mg/kg BID)
  Mortality: all female rats were found dead on day 7 and all male rats had to be sacrificed on day 8

From paper PMC11729428, “New Potent Inhibitor of Transforming Growth Factor-Beta (TGFβ) Signaling that is Efficacious against Microsatellite Stable Colorectal Cancer Metastasis in Combination with Immune Checkpoint Therapy in Mice” (ACS Pharmacology & Translational Science, 2024)
